# US20240150356A1, “Pyrimidine amide compounds and use thereof” (ALPHALA CO., LTD., priority 2019, published 2024)
# Where two headings read alike, the source gives them in different places.
# System: Hep3B cells (hepatocellular carcinoma cell line)
# Assay: In vitro MTS cell viability assay (NCI-60 methodology), Hep3B
# Type: cell-based
# Conditions: Homo sapiens, 48 h, 2 days drug incubation, 50% reduction vs time zero, read-out: Hep3B LC50
# Outline: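 Following NCI-60 method, MTS viability of Hep3B measured 24 h after plating (time zero) and after a further 2-day exposure to five concentrations (2-fold series). LC50 defined where [(Ti−Tz)/Tz]×100 = −50.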
compound,measurement,setting,value
"O=C(Nc1nc(N2CCC(F)(F)CC2)nc2c1cnn2C1CCCCC1)c1ccc([N+](=O)[O-])s1 [Compound 10-2, N-(1-cyclohexyl-6-(4,4-difluoropiperidin-1-yl)-1H-pyrazolo[3,4-d]pyrimidin-4-yl)-5-nitrothiophene-2-carboxamide]",LC50,"Table 10, MTS",3120 nM
"O=C(Nc1nc(Sc2ccccc2)nc2c1cnn2-c1ccccc1)c1ccc([N+](=O)[O-])s1 [Compound 5-15, 5-nitro-N-(1-phenyl-6-(phenylthio)-1H-pyrazolo[3,4-d]pyrimidin-4-yl)thiophene-2-carboxamide]",LC50,"Table 5, MTS",> 5000 nM
"O=C(Nc1nc(-c2ccc(N3CCOCC3)nc2)nc2c1cnn2-c1ccccc1)c1ccc([N+](=O)[O-])s1 [Compound 5-43, N-(6-(6-morpholinopyridin-3-yl)-1-phenyl-1H-pyrazolo[3,4-d]pyrimidin-4-yl)-5-nitrothiophene-2-carboxamide]",LC50,"Table 5, MTS",570 nM
CCCOc1ccc(-c2nc(NC(=O)c3ccc([N+](=O)[O-])s3)c3cnn(-c4ccc(F)cc4)c3n2)cc1 [Compound 6-132],LC50,"Table 6, MTS",430 nM
"CCOCCOCCOc1ccc(-c2nc(NC(=O)c3ccc([N+](=O)[O-])s3)c3cnn(-c4ccc(C(F)(F)F)cn4)c3n2)cn1 [Compound 7-7, N-(6-(6-(2-(2-ethoxyethoxy)ethoxy)pyridin-3-yl)-1-(5-(trifluoromethyl)pyridin-2-yl)-1H-pyrazolo[3,4-d]pyrimidin-4-yl)-5-nitrothiophene-2-carboxamide]",LC50,"Table 7, MTS",500 nM
"O=C(Nc1nc(-c2ccc(C(F)(F)F)cc2)nc2c1cnn2C1CCC(F)(F)CC1)c1ccc([N+](=O)[O-])s1 [Compound 10-58, N-(1-(4,4-difluorocyclohexyl)-6-(4-(trifluoromethyl)phenyl)-1H-pyrazolo[3,4-d]pyrimidin-4-yl)-5-nitrothiophene-2-carboxamide]",LC50,"Table 10, MTS",610 nM
"CC(C)(C)c1ccc(-n2ncc3c(NC(=O)c4ccc([N+](=O)[O-])s4)nc(-n4cc(C(F)(F)F)cn4)nc32)cc1 [Compound 6-78, N-(1-(4-(ter-butyl)phenyl)-6-(4-(trifluoromethyl)-1H-pyrazol-1-yl)-1H-pyrazolo[3,4-d]pyrimidin-4-yl)-5-nitrothiophene-2-carboxamide]",LC50,"Table 6, MTS",570 nM
"CCOCCOCCOc1ccc(-c2nc(NC(=O)c3ccc([N+](=O)[O-])s3)c3cnn(-c4ccc(F)cc4)c3n2)cn1 [Compound 6-137, N-(6-(6-(2-(2-ethoxyethoxy)ethoxy)pyridin-3-yl)-1-(4-fluorophenyl)-1H-pyrazolo[3,4-d]pyrimidin-4-yl)-5-nitrothiophene-2-carboxamide]",LC50,"Table 6, MTS",180 nM
"CC(C)(C)OC(=O)N1CCC(n2ncc3c(NC(=O)c4ccc([N+](=O)[O-])s4)nc(-c4ccc(F)nc4)nc32)CC1 [Compound 9-4, tert-butyl 4-(6-(6-fluoropyridin-3-yl)-4-(5-nitrothiophene-2-carboxamido)-1H-pyrazolo[3,4-d]pyrimidin-1-yl)piperidine-1-carboxylate]",LC50,"Table 9, MTS",930 nM
"Cc1ccc(-n2ncc3c(NC(=O)c4ccc([N+](=O)[O-])s4)nc(-c4ccc(C(F)(F)F)cc4)nc32)cc1 [Compound 6-8, 5-nitro-N-(1-(p-tolyl)-6-(4-(trifluoromethyl)phenyl)-1H-pyrazolo[3,4-d]pyrimidin-4-yl)thiophene-2-carboxamide]",LC50,"Table 6, MTS",350 nM
"O=C(Nc1nc(N2CCC[C@H]2CO)nc2c1cnn2-c1ccc(F)cc1)c1ccc([N+](=O)[O-])s1 [Compound 6-102, (S)—N-(1-(4-fluorophenyl)-6-(2-(hydroxymethyl)pyrrolidin-1-yl)-1H-pyrazolo[3,4-d]pyrimidin-4-yl)-5-nitrothiophene-2-carboxamide]",LC50,"Table 6, MTS",1300 nM
"COC(=O)c1ccc(-c2nc(NC(=O)c3ccc([N+](=O)[O-])s3)c3cnn(C4CC(C)CC(C)C4)c3n2)cc1 (stereo not drawn) [Compound 10-71, methyl 4-(1-(3,5-dimethylcyclohexyl)-4-(5-nitrothiophene-2-carboxamido)-1H-pyrazolo[3,4-d]pyrimidin-6-yl)benzoate]",LC50,"Table 10, MTS",690 nM
